Measurements from BindingDB's records for doi:10.1016/j.bmcl.2004.01.047 (University of Huddersfield, 2004).

Test: Binding affinity against metallo-beta-lactamase bacillus cereus(BCII)

Structure (SMILES): CC1CS[C@H](c2nc(O)c(-c3ccccc3)[nH]c2=S)NC1C(=O)O (stereo partly drawn) [(R)-5-Methyl-2-(6-oxo-5-phenyl-3-thioxo-piperazin-2-yl)-3,6-dihydro-2H-[1,3]thiazine-4-carboxylic acid anion]
- Ki: 29 µM
